Data from patent US9090605B2, “Substituted 5-,6- and 7-membered heterocycles, medicaments containing such compounds, and their use” (Vitae Pharmaceuticals, Inc., priority 2010, dated 2015).
pIC50: −log10 of the molar value.

What follows are molecules tested against 11β-HSD1 (Homo sapiens, UniProt P28845) (assay: In vitro inhibition of 11β-HSD1, HTRF detection of cortisol generated by human liver microsomes (biological test example 1)). Conditions: 1 hour at 37° C., cortisone 80 nM, NADPH 200 μM, read-out: IC50, inhibitory activity on 11β-HSD 1.
Type: biochemical
Parameters: detecting cortisol generated from cortisterone by human liver microsomes; from tissue; host or cells: human liver microsomes
Method: Briefly, compounds were incubated for 1 hour at 37° C. in Tris buffer (20 mM tris, 5 mM EDTA, pH 6.0) containing NADPH (200 μM) and cortisone (80 nM). Cortisol generated in the reaction was then detected with a competitive immunoassay, involving two HTRF conjugates: cortisol linked to XL665 and anti-cortisol antibody labeled with Europium cryptate. The incubation period for detection reaction was typically 2 hours. The amount of cortisol was determined by reading the time-resolved fluorescence of the wells (Ex 320/75 nm; Em 615/8.5 nm and 665/7.5 nm). The ratio of the two emission signals was then calculated (Em665*10000/Em615). […] Each assay also contained a calibration curve with cortisol to transform the fluorescent data into cortisol concentrations. Percent inhibition (% CTL) of each compound was determined relative to the carbenoxolone signal and IC50 curves were generated.

11β-HSD1, sequence (P28845 whole entry): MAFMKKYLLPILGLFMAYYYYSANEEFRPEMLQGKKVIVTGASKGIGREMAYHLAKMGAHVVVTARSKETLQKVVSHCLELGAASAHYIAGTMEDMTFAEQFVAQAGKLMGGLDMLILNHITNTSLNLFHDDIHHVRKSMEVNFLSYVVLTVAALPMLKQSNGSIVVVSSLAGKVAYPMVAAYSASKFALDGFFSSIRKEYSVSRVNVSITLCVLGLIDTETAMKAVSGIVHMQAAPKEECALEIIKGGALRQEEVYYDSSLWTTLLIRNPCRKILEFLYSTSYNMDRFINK

SMILES	pIC50
C[C@@H](c1ccc(-c2ccc(C3(O)COC3)cc2)cc1)N1CC[C@](CC(C)(C)O)(c2ccccc2)OC1=O [Example 1, (S)-6-(2-Hydroxy-2-methyl-propyl)-3-{(S)-1-[4′-(3-hydroxy-oxetan-3-yl)-biphenyl-4-yl]-ethyl}-6-phenyl-[1,3]oxazinan-2-one]	7.25
C[C@@H](c1ccc(-c2ccc(C3(C#N)CC3)nc2)cc1)N1CC[C@](CC(C)(C)O)(c2ccccc2)OC1=O [Example 2, 1-[5-(4-{(S)-1-[(S)-6-(2-Hydroxy-2-methyl-propyl)-2-oxo-6-phenyl-[1,3]oxazinan-3-yl]-ethyl}-phenyl)-pyridin-2-yl]-cyclopropanecarbonitrile]	7.17
C[C@@H](c1ccc(-c2ccc(C3(C(N)=O)CC3)nc2)cc1)N1CC[C@](CC(C)(C)O)(c2ccccc2)OC1=O [Example 3, 1-[5-(4-{(S)-1-[(S)-6-(2-Hydroxy-2-methyl-propyl)-2-oxo-6-phenyl-[1,3]oxazinan-3-yl]-ethyl}-phenyl)-pyridin-2-yl]-cyclopropanecarboxylic acid amide]	7.41
C[C@@H](c1ccc(-c2ccc(C3(C#N)CC3)nn2)cc1)N1CC[C@](CC(C)(C)O)(c2ccccc2)OC1=O [Example 4, 1-[6-(4-{(S)-1-[(S)-6-(2-Hydroxy-2-methyl-propyl)-2-oxo-6-phenyl-[1,3]oxazinan-3-yl]-ethyl}-phenyl)-pyridazin-3-yl]-cyclopropanecarbonitrile]	7.28
CNC(=O)C1(c2ccc(-c3ccc([C@H](C)N4CC[C@](CC(C)(C)O)(c5ccccc5)OC4=O)cc3)cn2)CC1 [Example 5, 1-[5-(4-{(S)-1-[(S)-6-(2-Hydroxy-2-methyl-propyl)-2-oxo-6-phenyl-[1,3]oxazinan-3-yl]-ethyl}-phenyl)-pyridin-2-yl]-cyclopropanecarboxylic acid methylamide]	7.51
C[C@@H](c1ccc(-c2ccc(C3(C(=O)N(C)C)CC3)nc2)cc1)N1CC[C@](CC(C)(C)O)(c2ccccc2)OC1=O [Example 6, 1-[5-(4-{(S)-1-[(S)-6-(2-Hydroxy-2-methyl-propyl)-2-oxo-6-phenyl-[1,3]oxazinan-3-yl]-ethyl}-phenyl)-pyridin-2-yl]-cyclopropanecarboxylic acid dimethylamide]	7.68
CCOC(=O)C1(c2ccc(-c3ccc([C@H](C)N4CC[C@](CC(C)(C)O)(c5ccccc5)OC4=O)cc3)nn2)CC1 [Example 7, 1-[6-(4-{(S)-1-[(S)-6-(2-Hydroxy-2-methyl-propyl)-2-oxo-6-phenyl-[1,3]oxazinan-3-yl]-ethyl}-phenyl)-pyridazin-3-yl]-cyclopropanecarboxylic acid ethyl ester]	7.39
C[C@@H](c1ccc(-c2ccc(C3(C(=O)O)CC3)nn2)cc1)N1CC[C@](CC(C)(C)O)(c2ccccc2)OC1=O [Example 8, 1-[6-(4-{(S)-1-[(S)-6-(2-Hydroxy-2-methyl-propyl)-2-oxo-6-phenyl-[1,3]oxazinan-3-yl]-ethyl}-phenyl)-pyridazin-3-yl]-cyclopropanecarboxylic acid]	6.74
C[C@@H](c1ccc(-c2ccc(C3(C(N)=O)CC3)nn2)cc1)N1CC[C@](CC(C)(C)O)(c2ccccc2)OC1=O [Example 9, 1-[6-(4-{(S)-1-[(S)-6-(2-Hydroxy-2-methyl-propyl)-2-oxo-6-phenyl-[1,3]oxazinan-3-yl]-ethyl}-phenyl)-pyridazin-3-yl]-cyclopropanecarboxylic acid amide]	7.17
CNC(=O)C1(c2ccc(-c3ccc([C@H](C)N4CC[C@](CC(C)(C)O)(c5ccccc5)OC4=O)cc3)nn2)CC1 [Example 10, 1-[6-(4-{(S)-1-[(S)-6-(2-Hydroxy-2-methyl-propyl)-2-oxo-6-phenyl-[1,3]oxazinan-3-yl]-ethyl}-phenyl)-pyridazin-3-yl]-cyclopropanecarboxylic acid methylamide]	7.21
C[C@@H](c1ccc(-c2ccc(C3(C(=O)N(C)C)CC3)nn2)cc1)N1CC[C@](CC(C)(C)O)(c2ccccc2)OC1=O [Example 11, 1-[6-(4-{(S)-1-[(S)-6-(2-Hydroxy-2-methyl-propyl)-2-oxo-6-phenyl-[1,3]oxazinan-3-yl]-ethyl}-phenyl)-pyridazin-3-yl]-cyclopropanecarboxylic acid dimethylamide]	7.03
C[C@@H](c1ccc(-c2ccn([C@@H]3CCOC3)c(=O)c2)cc1)N1CC[C@](CC(C)(C)O)(c2ccccc2)OC1=O [Example 12, (S)-6-(2-Hydroxy-2-methyl-propyl)-3-((S)-1-{4-[2-oxo-1-((R)-tetrahydro-furan-3-yl)-1,2-dihydro-pyridin-4-yl]-phenyl}-ethyl)-6-phenyl-[1,3]oxazinan-2-one]	7.04
C[C@@H](c1ccc(-c2ccn([C@H]3CCOC3)c(=O)c2)cc1)N1CC[C@](CC(C)(C)O)(c2ccccc2)OC1=O [Example 13, (S)-6-(2-Hydroxy-2-methyl-propyl)-3-((S)-1-{4-[2-oxo-1-((S)-tetrahydro-furan-3-yl)-1,2-dihydro-pyridin-4-yl]-phenyl}-ethyl)-6-phenyl-[1,3]oxazinan-2-one]	7.34
C[C@@H](c1ccc(-c2cnn(C3CCOCC3)c2)cc1)N1CC[C@](CC(C)(C)O)(c2ccccc2)OC1=O [Example 14, (S)-6-(2-Hydroxy-2-methyl-propyl)-6-phenyl-3-((S)-1-{4-[1-(tetrahydro-pyran-4-yl)-1H-pyrazol-4-yl]-phenyl}-ethyl)-[1,3]oxazinan-2-one]	7.32
C[C@@H](c1ccc(-c2cnn([C@@H]3CCOC3)c2)cc1)N1CC[C@](CC(C)(C)O)(c2ccccc2)OC1=O [Example 15, (S)-6-(2-Hydroxy-2-methyl-propyl)-6-phenyl-3-((S)-1-{4-[1-((R)-tetrahydro-furan-3-yl)-1H-pyrazol-4-yl]-phenyl}-ethyl)-[1,3]oxazinan-2-one]	7.57
C[C@@H](c1ccc(-c2cnn([C@H]3CCOC3)c2)cc1)N1CC[C@](CC(C)(C)O)(c2ccccc2)OC1=O [Example 16, (S)-6-(2-Hydroxy-2-methyl-propyl)-6-phenyl-3-((S)-1-{4-[1-((S)-tetrahydro-furan-3-yl)-1H-pyrazol-4-yl]-phenyl}-ethyl)-[1,3]oxazinan-2-one]	7.54
C[C@@H](c1ccc(-c2ccc(C3(C#N)CC3)cn2)cc1)N1CC[C@](CC(C)(C)O)(c2ccccc2)OC1=O [Example 17, 1-[6-(4-{(S)-1-[(S)-6-(2-Hydroxy-2-methyl-propyl)-2-oxo-6-phenyl-[1,3]oxazinan-3-yl]-ethyl}-phenyl)-pyridin-3-yl]-cyclopropanecarbonitrile]	7.09
C[C@@H](c1ccc(-c2ccc(C3(S(C)(=O)=O)CC3)nc2)cc1)N1CC[C@](CC(C)(C)O)(c2ccccc2)OC1=O [Example 18, (S)-6-(2-Hydroxy-2-methyl-propyl)-3-((S)-1-{4-[6-(1-methanesulfonyl-cyclopropyl)-pyridin-3-yl]-phenyl}-ethyl)-6-phenyl-[1,3]oxazinan-2-one]	7.19
C[C@@H](c1ccc(-c2ccc(C3(C(N)=O)CC3)cn2)cc1)N1CC[C@](CC(C)(C)O)(c2ccccc2)OC1=O [Example 19, 1-[6-(4-{(S)-1-[(S)-6-(2-Hydroxy-2-methyl-propyl)-2-oxo-6-phenyl-[1,3]oxazinan-3-yl]-ethyl}-phenyl)-pyridin-3-yl]-cyclopropanecarboxylic acid amide]	7.46
C[C@@H](c1ccc(-c2cccc(C3(S(C)(=O)=O)CC3)n2)cc1)N1CC[C@](CC(C)(C)O)(c2ccccc2)OC1=O [Example 20, (S)-6-(2-Hydroxy-2-methyl-propyl)-3-((S)-1-{4-[6-(1-methanesulfonyl-cyclopropyl)-pyridin-2-yl]-phenyl}-ethyl)-6-phenyl-[1,3]oxazinan-2-one]	7.14
C[C@@H](c1ccc(-c2ccnc(C3(S(C)(=O)=O)CC3)c2)cc1)N1CC[C@](CC(C)(C)O)(c2ccccc2)OC1=O [Example 21, (S)-6-(2-Hydroxy-2-methyl-propyl)-3-((S)-1-{4-[2-(1-methanesulfonyl-cyclopropyl)-pyridin-4-yl]-phenyl}-ethyl)-6-phenyl-[1,3]oxazinan-2-one]	7.28
C[C@@H](c1ccc(-c2cccc(C3(C(N)=O)CC3)n2)cc1)N1CC[C@](CC(C)(C)O)(c2ccccc2)OC1=O [Example 22, 1-[6-(4-{(S)-1-[(S)-6-(2-Hydroxy-2-methyl-propyl)-2-oxo-6-phenyl-[1,3]oxazinan-3-yl]-ethyl}-phenyl)-pyridin-2-yl]-cyclopropanecarboxylic acid amide]	7.07
CNC(=O)C1(c2cccc(-c3ccc([C@H](C)N4CC[C@](CC(C)(C)O)(c5ccccc5)OC4=O)cc3)n2)CC1 [Example 23, 1-[6-(4-{(S)-1-[(S)-6-(2-Hydroxy-2-methyl-propyl)-2-oxo-6-phenyl-[1,3]oxazinan-3-yl]-ethyl}-phenyl)-pyridin-2-yl]-cyclopropanecarboxylic acid methylamide]	6.94
C[C@@H](c1ccc(-c2cccc(C3(C(=O)N(C)C)CC3)n2)cc1)N1CC[C@](CC(C)(C)O)(c2ccccc2)OC1=O [Example 24, 1-[6-(4-{(S)-1-[(S)-6-(2-Hydroxy-2-methyl-propyl)-2-oxo-6-phenyl-[1,3]oxazinan-3-yl]-ethyl}-phenyl)-pyridin-2-yl]-cyclopropanecarboxylic acid dimethylamide]	7.28
C[C@@H](c1ccc(-c2ccc(C3(S(C)(=O)=O)CC3)cn2)cc1)N1CC[C@](CC(C)(C)O)(c2ccccc2)OC1=O [Example 25, (S)-6-(2-Hydroxy-2-methyl-propyl)-3-((S)-1-{4-[5-(1-methanesulfonyl-cyclopropyl)-pyridin-2-yl]-phenyl}-ethyl)-6-phenyl-[1,3]oxazinan-2-one]	7.08
